These results are taken from paper PMC11505038, “Kalata B1 Enhances Temozolomide Toxicity to Glioblastoma Cells” (Biomedicines, 2024).

In series [1] the test system is U-87 MG human glioblastoma cells. Nature of the series: cells. As to conditions: read-out: IC50 (μM) ± S.D.; U-87 MG, MTT, 72 h, 6000 cells/well, cyclotides 0.1-10 μM, TMZ 0.5-5000 μM, best fit nonlinear regression, triplicate wells, n = 3. The method, then:
SH-SY5Y human neuroblastoma cells (population doubling (PD) 20−24), T-98G, and U-87 MG human glioblastoma cells were removed from cryogenic storage, thawed rapidly in a water bath (37 °C) and reconstituted in 75 cm^2 flasks. For SH-SY5Y, the following media were used: Dulbecco’s modified Eagle’s medium/Nutrient F12 Ham (Sigma-Aldrich, Cat. No. D8437) containing 10% heat-inactivated fetal bovine serum, 4 mM L-glutamine, 100 U/mL penicillin, and 100 μg/mL streptomycin. For U-87 MG and T-98G Eagle’s minimal essential medium (ATCC: The Global Bioresource Center, Cat. No. ATCC 30-2003), containing 10% heat-inactivated fetal bovine serum, 4 mM L-glutamine, 100 U/mL penicillin, and 100 μg/mL streptomycin were used.
Cells were incubated at 37 °C in a humidified atmosphere of 5% CO2 and 95% air until recovered and ready for passaging (approximately 4 days). At between 80% and 90% confluence, the cells were trypsinized with warm (37 °C) sterile 0.5% Trypsin-EDTA (Thermo Fisher, Cat. No. 15400054) and passaged into 175 cm^2 flasks, where they were left to multiply until they reached 80−90% confluence. To plate cells: cultures were trypsinized, resuspended in 20 mL sterile PBS, counted using a cell counter (Olympus cell counter model R1), and plated in 96-well plates at an optimal density of 6000 cells/well in the designated culture media. The cells were left to adhere overnight before treatment the following day, when the culture medium was removed and replaced with the treatment medium. All incubations were conducted in triplicate wells and repeated at least three times (n = 3).
To calculate TMZ IC50 values in each cell line, TMZ was dissolved in DMSO at a stock concentration of 103 mM, which was then diluted into culture medium on the day of use, with the DMSO final concentration always less than 0.1%. The following concentrations of TMZ were used in the experiments: 0.5, 5, 50, 500, 2500, 5000 μM. The media were sterilized for each treatment media with a 0.22 μm filter before they were added to cell cultures. To determine the IC50 values for each cyclotide in each cell type, cyclotides were dissolved into 10% DMSO and then dilutions used to screen cyclotides with a final DMSO concentration of less than 0.1% The following concentrations of cyclotides were used: 0.1, 1, 5, 10 μM. For co-exposure experiments, a simultaneous exposure of cyclotide and TMZ at each respective dose was added to cell cultures (100 μL final volume per well).
In accordance with the methods developed by Mosmann and colleagues, the MTT assay was conducted using the Roche cell proliferation kit (Cat. No. 11465007001). Briefly, cells that are active can cleave MTT. The MTT is originally a yellow tetrazolium salt that undergoes a colorimetric change to purple formazan crystals, and the change in absorbance can be measured as an indicator of cell viability/proliferation. For these experiments, cells were plated into 96-well flat-bottom plates, as described in the cell culture above. […] To align with our previous work, experiments were conducted with a 72 h time frame for cytotoxicity evaluation.
After a 72 h incubation period, plates were removed from the incubator and 10 µL of MTT was added to each well. The plates were returned to the incubator for an additional 4 h, after which 100 µL of a solubilization solution was added to each well. The plates were returned to incubation overnight, and the next day absorbances were read at 570 nm on a Molecular Devices FlexStation 3 using SoftMax Pro Microplate Data Acquisition and Analysis Software (version 7.0.2).

Series [2] is described as follows: Human serum stability assay (UPLC-MS). The following applies: data points of 3 h, 8 h and 24 h; human serum from male AB plasma, 300 µM stock diluted 10 times, 37 °C, UPLC-MS peak area vs control, triplicate. The method, then:
Established protocols were used to analyze peptide stability in human serum isolated from male AB plasma (Sigma-Aldrich). Briefly, thawed plasma was centrifuged for 10 min at 15,000× g to concentrate lipids. The supernatant was carefully removed with a Pasteur pipette and incubated for 15 min at 37 °C, 5% CO2. […] Controls were synthetic Kalata B1 or TMZ in PBS that were incubated in parallel with human serum test compounds. Serum proteins were denatured with urea (final concentration of 3M) at 4 °C for 10 min., at each time point. Afterwards, trichloroacetic acid (7% final v/v) was added for 10 min to precipitate the proteins. Each sample was centrifuged for 10 min at 15,000× g; the supernatant was removed an evaluated in triplicate using UPLC-MS.
We conducted peptide stability assays in human serum isolated from male AB plasma and then analyzed with UPLC-MS. Synthetic Kalata B1 and TMZ were incubated with human serum and the portion of the peptide remaining was quantified by calculating the area of the respective elution peak in UPLC-MS, compared to the control.
Percentage of Kalata B1 and TMZ remaining upon incubation with human serum. The portion of serum-treated peptide remaining was determined by calculating the area of the respective elution peak in UPLC-MS and comparing it with the control without incubation. Data points are means ± SEM.

The conditions of series [3]: cited from earlier work. The source says: One of our objectives is to promote research that investigates methods to decrease the required concentrations of drugs such as TMZ for efficacy in vivo. Therefore, it is important to analyze the stability of cyclotides in human serum. The trypsin inhibitor cyclotide, MCoTI-II, has been extracted from the seeds of Momordica cochinchinensis Spreng. [Cucurbitaceae]. […] Huang and colleagues repeated these experiments with MCoTI-II and an ...

The test system of series [4] is U-87 MG cells. As to conditions: cited from earlier work.
For series [5], the system named is glioblastoma cells. The following applies: cited from earlier work.

Where a SMILES comes first, the peptide text is derived from it. Bridges are numbered along the chain shown (N, C = ends).

On to `CC[C@H](C)[C@@H]1NC(=O)[C@H](C)NC(=O)[C@H](CO)NC(=O)[C@H]([C@@H](C)O)NC(=O)[C@H](CC(C)C)NC(=O)[C@@H]2CSSC[C@@H]3NC(=O)[C@H](C(C)C)NC(=O)[C@H](CCCCN)NC(=O)[C@H](CO)NC(=O)[C@H](CCCCN)NC(=O)[C@@H]4CSSC[C@H](NC(=O)[C@H](CO)NC(=O)[C@H](CCC(=O)O)NC(=O)CNC(=O)[C@H](CSSC[C@H](NC(=O)CNC1=O)C(=O)N[C@@H](CO)C(=O)N4)NC(=O)[C@@H]1CCCN1C(=O)[C@H]([C@@H](C)CC)NC(=O)CNC(=O)[C@H](CC(N)=O)NC(=O)[C@H](CCCNC(=N)N)NC(=O)[C@H](Cc1ccc(O)cc1)NC3=O)C(=O)N[C@@H](C(C)C)C(=O)N[C@@H](Cc1c[nH]c3ccccc13)C(=O)N[C@@H]([C@@H](C)CC)C(=O)N1CCC[C@H]1C(=O)N2` [CyO3, Cycloviolacin O3] (cyclo(AIGCSCKSKVCYRNGIPCGESCVWIPCLTS); disulfide 4-18, 6-22, 11-27), for which the IC50 – broadly, the point on the concentration scale where inhibition reaches its midpoint – in series [1] is 2.6 ± 0.05 µM.

On to `CC[C@H](C)[C@@H]1NC(=O)[C@@H]2CSSC[C@@H]3NC(=O)[C@H](C(C)C)NC(=O)[C@H](CCCCN)NC(=O)[C@H](CO)NC(=O)[C@H](CCCCN)NC(=O)[C@@H]4CSSC[C@H](NC(=O)[C@H](CO)NC(=O)[C@H](CCC(=O)O)NC(=O)CNC(=O)[C@H](CSSC[C@H](NC(=O)CNC(=O)[C@H](C(C)C)NC(=O)[C@H](C(C)C)NC(=O)[C@H](CO)NC(=O)[C@H](CO)NC1=O)C(=O)N[C@@H](CO)C(=O)N4)NC(=O)[C@@H]1CCCN1C(=O)[C@H](CC(C)C)NC(=O)[C@H]([C@@H](C)O)NC(=O)CNC(=O)[C@H](CC(=O)O)NC(=O)[C@H](CCCCN)NC(=O)[C@H](Cc1ccc(O)cc1)NC3=O)C(=O)N[C@@H](C(C)C)C(=O)N[C@@H](Cc1c[nH]c3ccccc13)C(=O)N[C@@H]([C@@H](C)CC)C(=O)N1CCC[C@H]1C(=O)N2` [CyO19, Cycloviolacin O19] (cyclo(CGESCVWIPCISSVVGCSCKSKVCYKDGTLP); disulfide 1-17, 5-19, 10-24), for which the IC50 in series [1] worked out at 2.4 ± 0.07 µM.

With `CC(C)C[C@@H]1NC(=O)CNC(=O)[C@H](CC(N)=O)NC(=O)[C@H](CCCNC(=N)N)NC(=O)[C@H]([C@@H](C)O)NC(=O)[C@@H]2CSSC[C@@H]3NC(=O)[C@H]([C@@H](C)O)NC(=O)CNC(=O)CNC(=O)[C@H](C(C)C)NC(=O)[C@@H]4CSSC[C@H](NC(=O)[C@H]([C@@H](C)O)NC(=O)[C@H](CSSC[C@H](NC(=O)[C@H](C(C)C)NC(=O)[C@@H]5CCCN5C1=O)C(=O)NCC(=O)N[C@@H](CCC(=O)O)C(=O)N[C@@H]([C@@H](C)O)C(=O)N4)NC(=O)CNC(=O)[C@@H]1CCCN1C(=O)[C@H]([C@@H](C)O)NC(=O)[C@H](CC(N)=O)NC3=O)C(=O)N[C@@H](CO)C(=O)N[C@@H](Cc1c[nH]c3ccccc13)C(=O)N1CCC[C@H]1C(=O)N[C@@H](C(C)C)C(=O)N2` [Kalata B1], the “Stability in human serum (in words)” value in series [2] is on record as “remained stable”.

In the case of `CC(C)C[C@@H]1NC(=O)CNC(=O)[C@H](CC(N)=O)NC(=O)[C@H](CCCNC(=N)N)NC(=O)[C@H](Cc2ccccc2)NC(=O)[C@@H]2CSSC[C@@H]3NC(=O)[C@H]([C@@H](C)O)NC(=O)CNC(=O)CNC(=O)[C@H](C(C)C)NC(=O)[C@@H]4CSSC[C@H](NC(=O)[C@H](CO)NC(=O)[C@H](CSSC[C@H](NC(=O)[C@H](C(C)C)NC(=O)[C@@H]5CCCN5C1=O)C(=O)NCC(=O)N[C@@H](CCC(=O)O)C(=O)N[C@@H]([C@@H](C)O)C(=O)N4)NC(=O)CNC(=O)[C@@H]1CCCN1C(=O)[C@H]([C@@H](C)O)NC(=O)[C@H](CC(N)=O)NC3=O)C(=O)N[C@@H](CO)C(=O)N[C@@H](Cc1c[nH]c3ccccc13)C(=O)N1CCC[C@H]1C(=O)N[C@@H](C(C)C)C(=O)N2` [Vitri E], in series [1], the IC50 worked out at 21.1 ± 2.9 µM.

Regarding “MCoTI-II: trypsin inhibitor cyclotide extracted from the seeds of Momordica cochinchinensis; three-disulfide peptide (cyclo(SGSDGGVCPKILKKCRRDSDCPGACICRGNGYCG); disulfide (positions not given here); also: three disulfides, pairing not given here; UniProt P82409 1-34, looked up)”, the “Peptide remaining in human serum” value in series [3] (24 h) is 100%. For the same molecule, the “Time for which the peptide remained stable in human serum” value in series [3] is listed as “at least 24 h”.

With Varv peptide A, in series [4], the “Fold less TMZ required for significant cell death on co-exposure with the cyclotide” value is recorded as 2 fold. Also, in series [5], the IC50 was 2.91 µM.
